Earlier results, collected in US9662346B2, “Method of treating hyperesthesia, paresthesia, dolor, and pruritus caused by insect stings or noxious weeds or plants using avermectin compound” (priority 2007, dated 2017).

Tests used:
head lice = settings: single topical application
[1] = oral dosage of a moderate ivermectin concentration

**Q.** With ivermectin as the substance, how does the “effect on head lice” value (head lice) read?
**A.** The value was “curative effect”.

**Q.** What about the safety in human [1] of the same substance?
**A.** The safety in human was “safe in human, without serious adverse side effects”.
